Data published in patent US20250057791A1, “PROTECTION AGAINST ARTHROPOD PARASITES WITH PURINERGIC RECEPTOR (OPR) ANTAGONISTS” (priority 2021, published 2025).
pEC50: −log10 of the molar value. Where “and” joins values, the source holds several entries; their conditions need not be identical. Equal entries are not always repeated. Entries after “also recorded” stand apart in the source; their conditions may differ. Values belong to the compound of their own block, whether it stands above or below them.

Tests used:
[1] = system: A. gambiae mouthpart ATP-sensitive receptor; assay: Electrophysiological response to 200 pM ATP with PR antagonist admixed; assay type: cell-based, Anopheles gambiae; conditions: for ID50/ID95: block at maximum dose tested: admixed to 200 pM ATP
Description: (§1) The tip recording method was used to record action potentials (spikes) from sensory cells in sensilla on A. gambiae labellum lobes.
(§2) Sensilla were exposed to test compounds and PR antagonists for ca. 2-4 s and spikes were counted in the first 2 s of recordings. Up to 4 test compounds were tested on a sensillum to evaluate potential agonists, each presented at 200 pM. To study responses as a function of dose for agonists ATP, adenosine, AMP, AMP-CPP and ATP+adenosine, up to 7 recordings were made at increasing doses of agonist from the same sensillum. Unless otherwise stated, recordings were made throughout from 4 to 16 sensilla from individual 4-6-day-old females per dose of agonist, antagonist and metal ion modulator. For example, a response curve established over 6 doses of an antagonist using 8 sensilla per dose involved recording from a sensillum of 48 separate mosquitoes. A given dose of a PR antagonist or metal ion modulator was only presented once to a sensillum. Two-second recordings were imported as ASCII files into DataView software for analysis of spike amplitude. Differences in spike amplitude generated by stimulation of one 8v sensillum/female with 1 mM sucrose (n=294 spikes from 6 females) 200 pM adenosine (n=207 spikes from 7 females) and 200 pM ATP (n=192 spikes from 7 females) were compared by measuring the spike amplitude in mV between the highest point of depolarisation and the lowest point of hyperpolarisation.
Pairwise comparisons of A. gambiae electrophysiological (EP) responses to ATP and adenosine alone and combined with a given dose of PR antagonist, EP responses to ATP alone and combined with a given dose of a metal modulator, and EP responses to ATP prior to and after exposure of a sensillum to a given dose of a PR antagonist were made with a one-tailed Wilcoxon signed-rank test for data showing a non-normal distribution, with a paired Student's t-test for normally distributed data showing homogeneous variance and with a Welch's t-test for normally distributed data showing non-homogeneous variance. Effects on feeding of adding ATP, AMP-CPP, adenosine, ATP+adenosine, AMP and ADP-βS, CPT with ATP or adenosine, TMP with ATP+adenosine, TMP+CPT with ATP+adenosine to the FS for A. gambiae, and of adding PR antagonists with ATP to the FS for A. stephensi were compared using one-tailed Mann-Whitney U-test or Welch's t-test, depending on data distribution; Holm's FWEC was applied where treatment comparisons involved the same positive control. Percent feeding inhibition induced by PR antagonists in A. stephensi was calculated using Abbott's formula.
Dose-response models fitted to mosquito data were generated using the ‘drm’ command in the “drc” R package (version 2.5-12). Best fitting models (goodness of fit) and effects of dose of a compound were assessed using, respectively, ‘modelFit’ and ‘noEffect’ functions in the same R package. A 3-parameter logistic model (L3) was fitted to spike-counts recorded to increasing doses of adenosine, AMP, ATP and AMP-CPP. Spike numbers recorded in response to 200 pM ATP with increasing doses of PR antagonists added were analysed using a 4-parameter log-logistic model (LL.4) for A-317491 and spinorphin, using a 4-parameter Weibull model (W1.4) for PPADS, RB-2 and TMP, and using a 3-parameter log-logistic model (LL.3) for suramin. An L3 model was fitted to proportions of females feeding on increasing doses of ATP. Feeding rates on 20 μM ATP with increasing doses of a PR antagonist added were analysed using a 4-parameter log-logistic model (LL.4) with the median of the positive control (20 μM ATP) fixed as the upper asymptote. Response dynamics in 3-parameter models are related to the slope b, the upper asymptote, and inflexion point of the model e (the ED50 value), whereas 4 parameter models also include the lower asymptote parameter. […]

A. gambiae = assay: Membrane feeding assay, A. gambiae; assay type: in vivo, Anopheles gambiae; conditions: for % fed mosquitoes (mean ± s.e.m.), ATP + antagonist: antagonist 20 μM + 20 μM ATP; for feeding inhibition at maximum dose tested: maximum dose 20 μM
Description: Experiments with A. gambiae and A. stephensi were made in a climate chamber at 28° C. and 80% RH during the last 6 hours of scotophase. As a sugar meal can interfere with the blood meal by reducing the number of females that feed, the sucrose solution supplied in rearing cages to mosquitoes employed for feeding experiments was reduced to 5%. […] The 5% sucrose solution was presented to mosquitoes from emergence on four 1 cm diam. cotton dental rolls (Hartmann A G, Neuhausen, Switzerland) inserted in 10 ml upturned glass vials placed in holes at each corner of the rearing cage ceiling. Cotton rolls were turned daily in vials and renewed every two days. Mosquitoes were not fed blood and were deprived of sucrose 17 to 20 hours before experiments. Thirty min before a feeding experiment, between 10-25, 6-day-old females that responded to activation by human breath were removed with a mouth aspirator from the rearing cage wall and placed in polystyrol cylinders with the floor cut out (10 cm dm×15 cm high; Semadeni, Ostermundigen, Switzerland) that served as feeding cages. Each cage was covered with mosquito netting at one end and a soft polyurethane lid at the other.
Mosquitoes were fed for 30 min using a feeding system (Hemotek®, Hemotek Ltd, Blackburn, UK) consisting of 3.5 ml stainless steel reservoirs 37 mm in diameter covered with a 60-90 μm thick silicone-impregnated membrane (Kröber and Guerin, 2007 in “Feeding assays for hard ticks”, Trends in parasitology 23, 445-449; doi 10.1016/j.pt.2007.07.010). Feeding reservoirs reached a temperature of 37° C. within 10 min and were placed on the netting of feeding cages. Mosquitoes were activated using a 200 ms pulse of pure CO2 (volume 6.25 ml) from a pressurised cylinder (Carbagas, Switzerland) using a solenoid valve that caused the CO2 level in the feeding cage to rise to at least 1,500 ppm. Between 3 and 4 sets of 10 feeding cages held in a custom-built Ertacetal® POM frame were tested per day, depending of the number of female mosquitoes available from the colony.
All compounds were tested in a mosquito feeding solution (FS) consisting of 25 mM dextrose, 25 mM NaCl buffered with 8.93 mM NaHCO3 adjusted to pH 7.4. Feeding responses of A. gambiae and A. stephensi to ATP as a function of dose were tested with between 7 to 10 feeding cages per dose. Each feeding experiment with an antagonist systematically included a treatment containing the FS as negative control along with a treatment containing the FS with […] added as positive control for A. gambiae and with […] added as positive control for A. stephensi. These positive and negative controls permitted to monitor any effect of experimental day on feeding responses as a function of dose for antagonists that were recorded over several days. […] Four to 10 cages each with 10 to 29 mosquitoes were tested per antagonist dose. […] The number of feeding cages used to test other compounds and their mixtures as feeding stimulants or as feeding inhibitors is listed on Table 6. The percentage of fed mosquitoes was estimated by visual inspection of abdominal distention that is indicative of engorgement.
Pairwise comparisons of A. gambiae electrophysiological (EP) responses to ATP and adenosine alone and combined with a given dose of PR antagonist, EP responses to ATP alone and combined with a given dose of a metal modulator, and EP responses to ATP prior to and after exposure of a sensillum to a given dose of a PR antagonist were made with a one-tailed Wilcoxon signed-rank test for data showing a non-normal distribution, with a paired Student's t-test for normally distributed data showing homogeneous variance and with a Welch's t-test for normally distributed data showing non-homogeneous variance. […]

[2] = system: A. gambiae labellum sensilla (purine-sensitive cell); assay: Tip recording of action potentials from A. gambiae labellum sensilla in response to agonists; assay type: cell-based, Anopheles gambiae; conditions: for pEC50: Anopheles gambiae, read-out: ED50 (the source's name); for pEC50 / ED95 / dose at which the unsurmountable asymptote is reached: spike frequency as a function of dose; for spikes recorded at the asymptote: at 250 pM; for Mean spike frequency per 2 s (±SEM): each compound at 200 pM alone and in binary mixtures, T1 labellum sensilla
Description: as §1, §2
Spike counts elicited by 200 pM doses of nucleotides, nucleosides, purines, pyrimidines and water were log(x+1.25)-transformed (optimal constant numerically established using a maximum likelihood procedure) and analysed using a linear mixed effects model (function ‘lme’ in “nlme” R package) with mosquito number as random effect. To model inhomogeneous variance in residuals (near normal distribution, P=0.045, Shapiro-Wilk test, W=0.98604), the variance function ‘varldent’ in the “nlme” package that allows for different variance per treatment was used. Statistical differences were identified between treatments using post-hoc-Tukey test with contrasts adjusted by Holm's family wise error compensation (FWEC). Spike counts elicited by ATP, AMP, adenosine and their binary mixtures were analysed using a generalised linear model (LM) of log (x+10) transformed data and differences were identified using post-hoc-Tukey test with Holm's FWEC.
Log transformed spike amplitudes generated in response to ATP, adenosine and sucrose were compared using linear mixed effects models using the ‘lme’ function of the “nlme” R package, with spike amplitude as the dependent variable, treatment as the fixed factor and mosquito number within treatment as random effect. Residuals were normally distributed (Shapiro-Wilk test P>0.0563) and their variances homogeneous (Bartlett test P>0.9799); P-values were corrected using Holm's FWEC.
Dose-response models fitted to mosquito data were generated using the ‘drm’ command in the “drc” R package (version 2.5-12). Best fitting models (goodness of fit) and effects of dose of a compound were assessed using, respectively, ‘modelFit’ and ‘noEffect’ functions in the same R package. A 3-parameter logistic model (L3) was fitted to spike-counts recorded to increasing doses of adenosine, AMP, ATP and AMP-CPP. Spike numbers recorded in response to 200 pM ATP with increasing doses of PR antagonists added were analysed using a 4-parameter log-logistic model (LL.4) for A-317491 and spinorphin, using a 4-parameter Weibull model (W1.4) for PPADS, RB-2 and TMP, and using a 3-parameter log-logistic model (LL.3) for suramin. An L3 model was fitted to proportions of females feeding on increasing doses of ATP. Feeding rates on 20 μM ATP with increasing doses of a PR antagonist added were analysed using a 4-parameter log-logistic model (LL.4) with the median of the positive control (20 μM ATP) fixed as the upper asymptote. […]

[3] = antagonist 1000 nM + 200 pM ATP

ID50/ID95: block at maximum dose tested ([1]; maximum dose 1 μM): No block (1 μM)
SMILES: Clc1cccc(-c2nnnn2Cc2cccnc2)c1Cl [A-438079, 3-[[5-(2,3-dichlorophenyl)tetrazol-1-yl]methyl]pyridine]
Mean no. of spikes per 2 s (±s.e.m.), ATP + antagonist [1, 3]: 22.57 spikes per 2 s
% reduction in feeding (A. gambiae; 20 μM, with 20 μM ATP): (20 μM, 30.74%)
% fed mosquitoes (mean ± s.e.m.), ATP + antagonist (A. gambiae): 48.65%

SMILES: Nc1ncnc2c1ncn2[C@@H]1O[C@H](COP(=O)(O)OP(=O)(O)O)[C@@H](O)[C@H]1O [ADP, Adenosine 5′-diphosphate]
EP response in words ([2]; 200 pM): no activity; also recorded: failure

pEC50 [2]: ~9.92
SMILES: Nc1ncnc2c1ncn2[C@@H]1O[C@H](COP(=O)(O)O)[C@@H](O)[C@H]1O [AMP, Adenosine 5′-monophosphate]
spikes recorded at the asymptote [2]: approximately 30 spikes/2 s
Mean spike frequency per 2 s (±SEM) [2]: 28.58 per 2 s
ED95 [2]: ~0.2 nM
dose at which the unsurmountable asymptote is reached [2]: 250 pM
% Engorged mosquitoes (A. gambiae; 20 μM in feeding solution): 38.3 ± 5.1%

SMILES: Nc1ncnc2c1ncn2C1OC(COP(=O)(O)CP(=O)(O)OP(=O)(O)O)C(O)C1O (stereo not drawn) [AMP-CPP, α,β-Methyleneadenosine-5′-triphosphate]
ED95 [2]: 0.05 nM
dose at which the unsurmountable asymptote is reached [2]: 80 pM
% Engorged mosquitoes (A. gambiae; 20 μM in feeding solution): 84.35% and 84.3 ± 6.8%

pEC50 [2]: ~9.92
SMILES: Nc1ncnc2c1ncn2[C@@H]1O[C@H](CO)[C@@H](O)[C@H]1O [Adenosine, 9-β-D-Ribofuranosyladenine]
spike frequency ([2]; 50 pM alone, mixture 50 pM of each agonist): 1.25±0.62 /2s
EP response, spike frequency ([2]; 200 pM): 30.23±3.02 spikes/2s
spikes recorded at the asymptote [2]: approximately 30 spikes/2 s
Mean spike frequency per 2 s (±SEM) [2]: 27.14 per 2 s
ED95 [2]: ~0.2 nM
dose at which the unsurmountable asymptote is reached [2]: 250 pM
% Engorged mosquitoes (A. gambiae; 20 μM in feeding solution): 39.1 ± 5.7%
% Engorged mosquitoes (A. gambiae; 1 mM in feeding solution): 64.4 ± 3.2%

SMILES: Cc1nc(N=Nc2ccc(C(=O)O)cc2)c(COP(=O)(O)O)c(C=O)c1O [MRS 2159, [2-[(4-carboxyphenyl)diazenyl]-4-formyl-6-methyl-5-oxidopyridin-3-yl]methyl phosphate]
Mean no. of spikes per 2 s (±s.e.m.), ATP + antagonist [1, 3]: 27.14 spikes per 2 s
ID50/ID95: block at maximum dose tested ([1]; maximum dose 1 μM): No block (1 μM)
% fed mosquitoes (mean ± s.e.m.), ATP + antagonist (A. gambiae): 79.19%
feeding inhibition at maximum dose tested (A. gambiae; with 20 μM ATP): No feeding inhibition

ID50/ID95: block at maximum dose tested ([1]; maximum dose 2 μM): No block (2 μM)
SMILES: Fc1ccc([C@@H]2CCNC[C@H]2COc2ccc3c(c2)OCO3)cc1 [Paroxetine, (3S,4R)-3-(1,3-benzodioxol-5-yloxymethyl)-4-(4-fluorophenyl)piperidine]
Mean no. of spikes per 2 s (±s.e.m.), ATP + antagonist ([1]; antagonist 2000 nM + 200 pM ATP): 27.6 spikes per 2 s
% fed mosquitoes (mean ± s.e.m.), ATP + antagonist (A. gambiae): 62.72%
feeding inhibition at maximum dose tested (A. gambiae; with 20 μM ATP): No feeding inhibition

SMILES: Nc1ncnc2c1ncn2[C@H]1C[C@H](O)[C@@H](COP(=O)(O)OP(=O)(O)OP(=O)(O)O)O1 [dATP, 2′-Deoxyadenosine 5′-triphosphate]
EP response in words ([2]; 200 pM): strongly reduced activity

SMILES: Nc1ncnc2c1ncn2[C@H]1CC[C@@H](COP(=O)(O)OP(=O)(O)OP(=O)(O)O)O1 [ddATP, 2′,3′-Dideoxyadenosine-5′-triphosphate]
EP response in words ([2]; 200 pM): strongly reduced activity
